Experimental data taken from publication PMC7144934, “Design, Synthesis and Biological Evaluation of Phenyl Urea Derivatives as IDO1 Inhibitors” (Molecules, 2020).

Tests used:
IDO1 = test system: IDO1; parameters: method as in PMID 30760888; settings: Figure 1; cited from earlier work
[1] = biological target: T1, Recombinant human TDO (rhTDO) (Homo sapiens, UniProt P48775); test: Enzyme assay for TDO inhibition; format: biochemical; settings: 37 °C, 45 min
T1 construct: made in house
Experimental: Recombinant human IDO1 and TDO were expressed and purified according to the reported procedures. The assay was performed according to the literature: A standard reaction mixture (100 µL) containing 100 mM potassium phosphate buffer (pH 6.5), 40 mM ascorbic acid (neutralized with NaOH), 200 µg/mL catalase, 20 µM methylene blue and 0.05 µM rhIDO1 or rhTDO was added to the solution containing the substrate L-tryptophan and the test sample at a determined concentration. The reaction was carried out at 37 °C for 45 min and stopped by adding 20 µL of 30% (w/v) trichloroacetic acid. After heating at 65 °C for 15 min, 100 µL of 2% (w/v) p-dimethylaminobenzaldehyde in acetic acid was added to each well. The yellow pigment derived from kynurenine was measured at 492 nm using a SYNERGY-H1 microplate reader (Biotek Instruments, Inc., Winooski, VT, USA). IC50 was analyzed using the GraphPad Prism 8.0 software (GraphPad Software, San Diego, CA, USA).

[2] = biological target: T2, Recombinant human IDO1 (rhIDO1) (Homo sapiens, UniProt P14902); test: Enzyme assay for IDO1 inhibition; format: biochemical; settings: for IDO1 inhibitory activity (in words) / IC50: rhIDO1 enzyme assay; for IC50: 37 °C, 45 min
T2 construct: made in house
T2 sequence (P14902 whole entry): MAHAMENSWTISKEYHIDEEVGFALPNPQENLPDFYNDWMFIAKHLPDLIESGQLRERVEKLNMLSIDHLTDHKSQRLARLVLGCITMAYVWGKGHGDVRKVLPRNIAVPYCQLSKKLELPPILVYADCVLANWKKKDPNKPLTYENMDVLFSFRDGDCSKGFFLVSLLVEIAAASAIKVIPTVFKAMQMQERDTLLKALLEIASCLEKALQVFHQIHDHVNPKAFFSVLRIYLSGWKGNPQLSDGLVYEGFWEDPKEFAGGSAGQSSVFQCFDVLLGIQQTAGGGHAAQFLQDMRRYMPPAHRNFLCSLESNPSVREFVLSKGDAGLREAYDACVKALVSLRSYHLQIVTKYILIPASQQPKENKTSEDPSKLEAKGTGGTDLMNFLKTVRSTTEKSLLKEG

T1 sequence (P48775 whole entry): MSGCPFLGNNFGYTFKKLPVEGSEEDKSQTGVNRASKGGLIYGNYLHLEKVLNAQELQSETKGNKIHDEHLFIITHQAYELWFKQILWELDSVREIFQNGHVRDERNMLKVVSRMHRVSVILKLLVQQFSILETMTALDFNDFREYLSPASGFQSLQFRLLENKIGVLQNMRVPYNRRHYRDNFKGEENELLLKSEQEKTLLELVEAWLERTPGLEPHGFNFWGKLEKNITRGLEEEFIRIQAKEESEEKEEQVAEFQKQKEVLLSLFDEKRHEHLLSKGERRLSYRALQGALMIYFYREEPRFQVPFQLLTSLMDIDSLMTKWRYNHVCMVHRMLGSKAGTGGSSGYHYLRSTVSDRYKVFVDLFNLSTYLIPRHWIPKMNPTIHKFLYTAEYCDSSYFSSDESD

SMILES	IC50 (IDO1) [µM]	IC50 [1] [µM]	IDO1 inhibitory activity (in words) [2]	IC50 [2] [µM]	fold more potent than compound BMS-E30 (IDO1) ([2]; ratio of IDO1 enzyme IC50 values) [fold]
C[C@@H](C(=O)Nc1ccc(Cl)cc1)C1CCC(c2ccnc3ccc(F)cc23)CC1 (stereo partly drawn) [BMS-986205]	0.0017	–	–	–	–
CC1CC(C)CN(c2ccc(C(CC(=O)O)C(F)(F)F)cc2NC(=O)Nc2cccc(C#N)c2)C1 (stereo not drawn) [i11, 3-[3-[3-(3-cyanophenyl)ureido]-4-(3,5-dimethylpiperidin-1-yl)-phenyl]-4,4,4-trifluorobutyric Acid]	–	> 100	lost all IDO1 inhibitory activity	> 100	–
COc1ccccc1NC(=O)Nc1cc(C(CC(=O)O)C(F)(F)F)ccc1N1CC(C)CC(C)C1 (stereo not drawn) [i13, 3-{4-(3,5-dimethylpiperidin-1-yl)-3-[3-(2-methoxyphenyl)ureido]-phenyl}-4,4,4-trifluorobutyric Acid]	–	> 100	lost all IDO1 inhibitory activity	> 100	–
COc1cccc(NC(=O)Nc2cc(C(CC(=O)O)C(F)(F)F)ccc2N2CC(C)CC(C)C2)c1 (stereo not drawn) [i14, 3-{4-(3,5-dimethylpiperidin-1-yl)-3-[3-(3-methoxyphenyl)ureido]-phenyl}-4,4,4-trifluorobutyric Acid]	–	> 100	lost all IDO1 inhibitory activity	> 100	–
COc1ccc(NC(=O)Nc2cc(C(CC(=O)O)C(F)(F)F)ccc2N2CC(C)CC(C)C2)cc1 (stereo not drawn) [i15, 3-{4-(3,5-dimethylpiperidin-1-yl)-3-[3-(4-methoxyphenyl)ureido]-phenyl}-4,4,4-trifluorobutyric Acid]	–	> 100	more potent IDO1 inhibitory activity than the unsubstituted i1	1.62	–
CC1CC(C)CN(c2ccc(C(CC(=O)O)C(F)(F)F)cc2NC(=O)Nc2ccc(F)cc2F)C1 (stereo not drawn) [i16, 3-[3-[3-(2,4-difluorophenyl)ureido]-4-(3,5-dimethylpiperidin-1-yl)-phenyl]-4,4,4-trifluorobutyric Acid]	–	> 100	no inhibitory activities	> 100	–
CC1CC(C)CN(c2ccc(C(CC(=O)O)C(F)(F)F)cc2NC(=O)Nc2ccc(Cl)cc2Cl)C1 (stereo not drawn) [i17, 3-[3-[3-(2,4-dichlorophenyl)ureido]-4-(3,5-dimethylpiperidin-1-yl)-phenyl]-4,4,4-trifluorobutyric Acid]	–	> 100	no inhibitory activities	> 100	–
CC1CC(C)CN(c2ccc(C(CC(=O)O)C(F)(F)F)cc2NC(=O)Nc2ccc(F)cc2)C1 (stereo not drawn) [i18, 3-{4-(3,5-dimethylpiperidin-1-yl)-3-[3-(4-fluorophenyl)ureido]-phenyl}-4,4,4-trifluorobutyric Acid]	–	> 100	–	5.48	–
CC1CC(C)CN(c2ccc(C(CC(=O)O)C(F)(F)F)cc2NC(=O)Nc2ccc(Br)cc2)C1 (stereo not drawn) [i19, 3-[3-[3-(4-bromophenyl)ureido]-4-(3,5-dimethylpiperidin-1-yl)-phenyl]-4,4,4-trifluorobutyric Acid]	–	> 100	–	4.08	–
CCc1ccc(NC(=O)Nc2cc(C(CC(=O)O)C(F)(F)F)ccc2N2CC(C)CC(C)C2)cc1 (stereo not drawn) [i20, 3-{4-(3,5-dimethylpiperidin-1-yl)-3-[3-(4-ethylphenyl)ureido]phenyl}-4,4,4-trifluorobutyric Acid]	–	> 100	–	9.98	–
CC1CC(C)CN(c2ccc(C(CC(=O)O)C(F)(F)F)cc2NC(=O)Nc2ccc(C(C)C)cc2)C1 (stereo not drawn) [i21, 3-{4-(3,5-dimethylpiperidin-1-yl)-3-[3-(4-isopropylphenyl)ureido]-phenyl}-4,4,4-trifluorobutyric Acid]	–	> 100	loss of activity	> 100	–
CC1CC(C)CN(c2ccc(C(CC(=O)O)C(F)(F)F)cc2NC(=O)Nc2ccc(OC(F)(F)F)cc2)C1 (stereo not drawn) [i22, 3-{4-(3,5-dimethylpiperidin-1-yl)-3-[3-(4-trifluoromethoxyphenyl)-ureido]phenyl}-4,4,4-trifluorobutyric Acid]	–	> 100	–	1.32	–
CC1CC(C)CN(c2ccc(C(CC(=O)O)C(F)(F)F)cc2NC(=O)Nc2ccc(C(F)(F)F)cc2)C1 (stereo not drawn) [i23, 3-{4-(3,5-dimethylpiperidin-1-yl)-3-[3-(4-trifluoromethylphenyl)-ureido]phenyl}-4,4,4-trifluorobutyric Acid]	–	> 100	–	0.415	–
CC1CC(C)CN(c2ccc(C(CC(=O)O)C(F)(F)F)cc2NC(=O)Nc2ccc([N+](=O)[O-])cc2)C1 (stereo not drawn) [i24, 3-{4-(3,5-dimethylpiperidin-1-yl)-3-[3-(4-nitrophenyl)ureido]phenyl}-4,4,4-trifluorobutyric Acid]	–	> 100	–	0.157	55
CC1CC(C)CN(c2ccc(C(CC(=O)O)C(F)(F)F)cc2NC(=O)Cc2ccc(C#N)cc2)C1 (stereo not drawn) [j1, 3-[3-[2-(4-cyanophenyl)acetylamino]-4-(3,5-dimethylpiperidin-1-yl)-phenyl]-4,4,4-trifluorobutyric Acid]	–	> 100	no inhibitory activity	> 100	–
CC1CC(C)CN(c2ccc(C(CC(=O)O)C(F)(F)F)cc2NC(=O)Cc2ccc(C(F)(F)F)cc2)C1 (stereo not drawn) [j2, 3-{4-(3,5-dimethylpiperidin-1-yl)-3-[2-(4-trifluoromethylphenyl)-acetylamino]phenyl}-4,4,4-trifluorobutyric Acid]	–	> 100	no inhibitory activity	> 100	–
CC1CC(C)CN(c2ccc(C(CC(=O)O)C(F)(F)F)cc2NC(=O)Cc2ccc([N+](=O)[O-])cc2)C1 (stereo not drawn) [j3, 3-{4-(3,5-dimethylpiperidin-1-yl)-3-[2-(4-nitrophenyl)acetylamino]-phenyl}-4,4,4-trifluorobutyric Acid]	–	> 100	no inhibitory activity	> 100	–
